Patent US20230174636A1, “COMPOSITIONS AND METHODS FOR TREATING CANCER” (RUSH UNIVERSITY MEDICAL CENTER, priority 2020, published 2023)
Where no end group is shown, it is not given here. [ ]: non-standard residue; d: D form.

Tests used:
[1] = test system: BT-549 cells; experiment: MTT assay (cell viability), BT-549; type: cell-based, human; details: BT-549, 48 h, serum-free, combined with mAb a3-3a
Description: (§1) MTT assay: Mitochondrial activity was measured with the 3-(4, 5-dimethylthiazol-2-yl)-2, 5-diphenyltetrazolium bromide (MTT) assay (Sigma) as described before. The cells were grown on 24-well culture plates with 500 μl of medium and treated with various reagents according to the experimental design. At the end of the treatment period, 300 μl of culture medium were removed from each well, and 20 μl of MTT solution (5 mg/ml) were added and incubated for 1 h.

[2] = test system: TNBC tumor; experiment: Tumor size in PDX mouse model of TNBC; type: in vivo, mice; details: for shrinkage of TNBC tumor in mAb a3-3a-treated mice / tumor shrinkage in mAb a3-3a-treated TNBC mice: peptide 0.1 mg/kg daily intranasal plus a3-3a 2 mg/kg weekly i.p.; for shrinkage of TNBC tumor in mAb a3-3a-treated mice: 3 weeks; for tumor shrinkage in mAb a3-3a-treated TNBC mice: three weeks; for p40 mAb a3-3a-mediated reduction of TNBC tumor: peptide 0.1 mg/kg daily intranasal plus p40 mAb 2 mg/kg weekly, 2 weeks, infrared imaging
Description: Animals: Animal maintaining and experiments were in accordance with National Institute of Health guidelines and were approved by the Institutional Animal Care and Use committee of the Rush University of Medical Center, Chicago, Ill. Patient-derived xenograft (PDX) model (ID # TM00096) was purchased from Jackson Laboratory, Bar Harbor, Me., USA. In this model, TNBC tumor fragments at passage P1-P9 (invasive ductal carcinoma; TNBC ER^−PR^−HER2^−) were engrafted in the flank of female 6-8 week old NOD scid gamma (NSG) mice. Mice were shipped to us by Jackson Laboratory within ˜2 weeks following tumor engraftment. PDX mice were maintained in our temperature-controlled animal vivarium with adequate food and water.
Tumor measurement: Tumor growth was measured with a caliper and tumor cross-sectional area was determined with the formula (mm^2=longest diameter X shortest diameter). Treatment with p40 mAb started when the tumor sizes reached 0.6-0.8 cm^2 in area. The p40 mAb a3-3a was injected once a week intraperitoneally in 0.1 ml volume of sterile PBS-1% normal mouse serum. The tumors were then measured to determine progression or regression. Infrared dye (Alexa 800-conjugated 2DG dye; Licor) was injected via tail-vein on the day before imaging analysis. Mice were sacrificed at the end of the study and tumor tissues were collected for different biochemical analyses.

[3] = test system: splenocytes; experiment: FACS of T cells in splenocytes of PDX mice; type: in vivo; details: intranasal peptide plus p40 mAb, 3 weeks
Description: Isolation of splenocytes: Spleens isolated from treated or untreated PDX mice were placed into a cell strainer and mashed with a syringe plunger. Resulting single-cell suspensions were treated with RBC lysis buffer (Sigma-Aldrich), washed, and cultured in RPMI 1640 supplemented with 10% FBS, 50 μM 2-ME, 2 mM L-glutamine, 100 U/ml penicillin, and 100 μg/ml streptomycin.
Flow cytometry: Single-cell suspensions isolated from mouse spleen or tumor were stained with Zombie Aqua™ Fixable Viability Kit (Biolegend) according to the manufacturer's instructions. Cells were washed with FACS buffer (ThermoFisher) and stained with FITC-anti-human CD4 antibody and APC/Cy7-anti-human CD8 antibody (Biolegend) for extracellular stains. For IFNγ staining, cells were stained with PE-anti-human IFNγ antibody (Biolegend) and detected by flow cytometry analysis. Only PE-treated and unstained cells served as control. Flow cytometric analyses were performed using the LSRFortessa analyzer (BD Biosciences) and analyzed using the FlowJo Software (v10) as described.

[4] = test system: Hep3B (human liver cancer cells); experiment: MTT assay (cell viability), Hep3B; type: cell-based; details: 48 h, serum-free, combined with mAb a3-3a
Description: as §1

[5] = test system: MCF-7 cells; experiment: MTT assay (cell viability), MCF-7; type: cell-based, human; details: MCF-7, 48 h, serum-free, combined with mAb a3-3a
Description: as §1

[6] = test system: TNBC tumor; experiment: H&E staining of tumor sections of PDX mice; type: in vivo; details: peptide 0.1 mg/kg daily intranasal plus p40 mAb 2 mg/kg weekly, 2 weeks
[7] = test system: IFNγ, IL-10; experiment: Serum IFNγ and IL-10 by sandwich ELISA in PDX mice; type: in vivo; details: peptide 0.1 mg/kg daily intranasal plus p40 mAb, 2 weeks
Description: (§2) Sandwich ELISA: Sandwich ELISA was used to quantify p402 and p40 as described by us. Briefly, for p402, mAb a3-1d (1.3 mg/mL) was diluted 1:3000 and added to each well (100 μL/well) of a 96-well ELISA plate for coating. The biotinylated p402 mAb d7-12c (2 mg/mL) was diluted 1:3000 and used as detection antibody. Similarly for p40, mAb a3-3a (1.3 mg/mL) and biotinylated p40 mAb a3-7g (2 mg/mL) were also diluted 1:3000 and used as coating and detection antibodies, respectively. Concentrations of IFN-γ, IL-12, IL-23, and IL-10 were measured in serum or tissue homogenates by ELISA (eBioscience/ThermoFisher), according to the manufacturer's instructions as described before.

[8] = test system: human IFNγ, human IL-10; experiment: IFNγ and IL-10 in tumor tissue extracts by sandwich ELISA; type: in vivo, mice; details: peptide 0.1 mg/kg daily intranasal plus p40 mAb, 2 weeks
Description: FIG. 23A-23B. Intranasal wtTIDM peptide stimulates the p40 mAb-mediated induction of IFNγ while reducing the level of IL-10 in TNBC tumor tissues of patient-derived xenograft (PDX) mice. Female 6-8 week old NOD scid gamma (NSG) mice were engrafted TNBC tumor fragments at passage P1-P9 (invasive ductal carcinoma; TNBC ER^−/−/PR^−/−/HER2^−/−) in the flank. After about 4 weeks of engraftment, when tumors of PDX mice were 0.6-0.8 cm^2 in size, mice were treated with p40 mAb and hamster IgG at a dose of 2 mg/kg body wt once a week. Mice were also treated with wild type (wt) and mutated (m) TLR2-interacting domain of MyD88 (TIDM) peptide at a dose of 0.1 mg/kg body wt daily via intranasal route. After 2 weeks of treatment, levels of human IFNγ (23A) and human IL-10 (23B) were measured in tumor tissue extracts by sandwich ELISA (Thermofisher). Results are mean±SEM of 6-7 mice per group. ***p<0.001.
as §2

Substance	death induced by p40 mAb a3-3a in presence of NBD peptide (MTT) [1]	shrinkage of TNBC tumor in mAb a3-3a-treated mice [2]	Tc1 (CD8+IFNγ+) response in p40 mAb-treated TNBC mice [3]	death induced by p40 mAb a3-3a in presence of NBD peptide (MTT) [4]	death induced by p40 mAb a3-3a in presence of NBD peptide (MTT) [5]	death by combination of mAb a3-3a and TIDM peptide (MTT) [1]	tumor shrinkage in mAb a3-3a-treated TNBC mice [2]	p40 mAb a3-3a-mediated reduction of TNBC tumor [2]	death of TNBC tumor in p40 mAb a3-3a-treated mice (H&E) [6]	p40 mAb a3-3a-mediated induction of IFNγ in serum [7]	p40 mAb a3-3a-mediated reduction of IL-10 in serum [7]	death by combination of mAb a3-3a and TIDM peptide (MTT) [4]	death by combination of mAb a3-3a and TIDM peptide (MTT) [5]	p40 mAb a3-3a-mediated induction of IFNγ in tumor tissues [8]	p40 mAb a3-3a-mediated reduction of IL-10 in tumor tissues [8]
NEMO-binding domain (NBD) peptide [wtNBD]	greater death	greater shrinkage	markedly stimulated	greater death	greater death	–	–	–	–	–	–	–	–	–	–
TLR2-interacting domain of MyD88 (TIDM) peptide (DRQIKIWFQNRRMKWKKPGAHQK; not fully specified (some residues)) [wtTIDM]	–	–	markedly stimulated	–	–	markedly induced death	greater tumor shrinkage	significantly stimulated	stimulated the death	stimulated	potentiated	markedly induced death	markedly induced death	stimulated	potentiated
mNBD: Mutated (m) NBD control peptide, drqikiwfqnrrmkwkkLDASAL (SEQ ID NO: 9) ([dD][dR][dQ][dI][dK][dI][dW][dF][dQ][dN][dR][dR][dM][dK][dW][dK][dK]LDASAL) [reference compound]	not seen	did not exhibit such effect	–	not seen	not seen	–	–	–	–	–	–	–	–	–	–
mTIDM: Mutated (m) TIDM control peptide, drqikiwfqnrmikwkkPGWHGD (SEQ ID NO.: 5) ([dD][dR][dQ][dI][dK][dI][dW][dF][dQ][dN][dR][dM][dI][dK][dW][dK][dK]PGWHGD) [reference compound]	–	–	–	–	–	not	not	remained unable to stimulate	not	not	not	not	not	not	not
